ChEMBL document CHEMBL2331213, “A flexible approach to 1,4-di-substituted 2-aminoimidazoles that inhibit and disperse biofilms and potentiate the effects of β-lactams against multi-drug resistant bacteria” (Eur J Med Chem, 2013)

Legend:
[1] = test system: Staphylococcus aureus; assay: Antibacterial activity against methicillin-resistant Staphylococcus aureus ATCC BAA-44 assessed as reduction of oxacillin MIC at 25% MIC by broth microdilution method relative to oxacillin-treated control; type: functional
[2] = test system: Staphylococcus aureus; assay: Antibacterial activity against methicillin-resistant Staphylococcus aureus ATCC BAA-44 assessed as dispersion of preformed biofilm after 24 hrs by crystal violet reporter assay; type: functional, organism-based; details: ATCC BAA-44, 24 h
[3] = test system: Acinetobacter baumannii; assay: Antibacterial activity against multidrug-resistant Acinetobacter baumannii ATCC BAA-1605 assessed as inhibition of biofilm growth after 24 hrs by crystal violet reporter assay; type: functional, organism-based
[4] = test system: Staphylococcus aureus; assay: Antibacterial activity against methicillin-resistant Staphylococcus aureus ATCC BAA-44 assessed as inhibition of biofilm growth after 24 hrs by crystal violet reporter assay; type: functional, organism-based; details: ATCC BAA-44, 24 h
[5] = test system: Acinetobacter baumannii; assay: Antibacterial activity against multidrug-resistant Acinetobacter baumannii ATCC BAA-1605 assessed as growth inhibition by broth microdilution method; type: functional
[6] = test system: Staphylococcus aureus; assay: Antibacterial activity against methicillin-resistant Staphylococcus aureus ATCC BAA-44 assessed as growth inhibition by broth microdilution method; type: functional
[7] = Acinetobacter baumannii, ATCC BAA-1605, 24 h, read-out: IC50

| Structure (SMILES) | fold change (FC) [1] | EC50 [2] [µM] | IC50 [3, 7] [µM] | IC50 [4] [µM] | MIC [5] [µM] | MIC [6] [µM] | IC50 [3] |
| --- | --- | --- | --- | --- | --- | --- | --- |
| CCCCCc1ccc(C(=O)NCCn2cc(CCCCCc3cn(CCCCC)c(N)n3)nn2)cc1.Cl | 0 | 45.1 | 31.4 | 4.14 | 100 | 12.5 | – |
| CCCCCc1ccc(C(=O)NCCn2cc(CCCCCc3c[nH]c(N)n3)nn2)cc1.Cl | 4 | – | – | – | – | – | – |
| CCCCCc1ccc(C(=O)NCCn2cc(CCCCCc3cn(CCc4ccccc4)c(N)n3)nn2)cc1.Cl | 0 | 33 | 39.2 | 9.9 | 100 | 25 | – |
| CCCCCc1ccc(C(=O)NCCn2cc(CCCCCc3cn(-c4ccccc4)c(N)n3)nn2)cc1.Cl | 0 | – | 49.8 | 25.1 | > 200 | 25 | – |
| CCCCCc1ccc(C(=O)NCCn2cc(CCCCCc3cn(C4CCCC4)c(N)n3)nn2)cc1.Cl | 2 | 34.5 | 33.7 | 9.01 | 100 | 25 | – |
| C=CCn1cc(CCCCCc2cn(CCNC(=O)c3ccc(CCCCC)cc3)nn2)nc1N.Cl | 2 | – | – | 13.2 | 200 | 50 | ND(toxic) |
| CCCCCc1ccc(C(=O)NCCn2cc(CCCCCc3cn(C4CCCCC4)c(N)n3)nn2)cc1.Cl | 2 | – | – | 18.7 | 200 | 25 | ND(toxic) |
| CCCCCc1ccc(C(=O)NCCn2cc(CCCCCc3cn(Cc4ccccc4)c(N)n3)nn2)cc1.Cl | 0 | 39.6 | 33.9 | 7.16 | 100 | 12.5 | – |
| CCCCCc1ccc(C(=O)NCCn2cc(CCCCCc3cn(CCCC)c(N)n3)nn2)cc1.Cl | 0 | – | 53.8 | 10.8 | 100 | 25 | – |
| CCCCCCn1cc(CCCCCc2cn(CCNC(=O)c3ccc(CCCCC)cc3)nn2)nc1N.Cl | 0 | 41 | 26.2 | 6.2 | 100 | 12.5 | – |
| CCCCCc1ccc(C(=O)NCCn2cc(CCCCCc3cn(CC(C)C)c(N)n3)nn2)cc1.Cl | 4 | – | 98.6 | 24 | 200 | 50 | – |
| CCCCCc1ccc(C(=O)NCCn2cc(CCCCCc3cn(C(C)C)c(N)n3)nn2)cc1.Cl | 0 | – | – | > 100 | > 200 | 200 | ND(toxic) |
| CCCCCc1ccc(C(=O)NCCn2cc(CCCCCc3cn(C4CC4)c(N)n3)nn2)cc1.Cl | 2 | – | – | > 100 | > 200 | 100 | ND(toxic) |
